The results in this text go back to patent US20240122179A1, “AUXINIC HERBICIDES AND METHODS OF USE THEREOF” (CORTEVA AGRISCIENCE LLC, priority 2021, published 2024).

The subject of series [1] is Conyza canadensis (L.) (ERICA). Description: Postemergence herbicide evaluation, percent reduction in plant size vs untreated control, 21 days after treatment. Particulars: Erigeron canadensis, post-emergence, 504 h, ERICA, postemergence, read-out: Control/Injury; for pest or weed control at 140 g/ha: rate 140 g ae/ha; for pest or weed control at 280 g/ha: rate 280 g ae/ha. In kind it is in vivo, Conyza canadensis (L.) (Horseweed). An outline of the steps: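 Horseshoe-weed (horseweed) seedlings at 2 to 8 leaf stage in greenhouse (25-28° C, 16 h light), sprayed postemergence at 140 or 280 g ae/ha in acetone/DMSO-based spray solution, 187 L/ha track-sprayer. Randomized complete block, 3-4 replicates; plant size measured 21 days after treatment as percent reduction vs untreated controls.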

The test system of series [2] is Kochia scoparia (KCHSC). The series is described as above. In kind it is in vivo. Conditions: Bassia scoparia, post-emergence, 504 h, KCHSC, postemergence, read-out: Control/Injury; for pest or weed control at 140 g/ha: rate 140 g ae/ha; for pest or weed control at 280 g/ha: rate 280 g ae/ha. Put shortly:
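Greenhouse-grown plants (25-28 °C, 16 h light) at the 2 to 8 leaf stage were track-sprayed postemergence at 140 or 280 g ae/ha in acetone/DMSO-based spray solution with crop oil and surfactant, at 187 L/ha, in 3-4 randomized replicates.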

The test system of series [3] is Ambrosia artemisiifolia (AMBEL). Described as above. It is filed as in vivo, Ambrosia artemisiifolia (common ragweed). Particulars: post-emergence, 504 h, AMBEL, postemergence, read-out: Control/Injury; for pest or weed control at 140 g/ha: rate 140 g ae/ha; for pest or weed control at 280 g/ha: rate 280 g ae/ha. An outline of the steps:
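Greenhouse-grown plants (25–28 °C, 16 h light) were sprayed postemergence at the 2–8 leaf stage with 140 or 280 g ae/ha in acetone/DMSO-based spray solution with crop oil and surfactant, at 187 L/ha by track sprayer. There were 3–4 replicates. Plant size was measured 21 days after treatment versus untreated plants.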

Series [4] relates to Amaranthus palmeri (AMAPA). The description is as above. It is filed as in vivo, Amaranthus palmeri (Palmer amaranth). Particulars: post-emergence, 504 h, postemergence, read-out: Control/Injury; for pest or weed control at 140 g/ha: rate 140 g ae/ha; for pest or weed control at 280 g/ha: rate 280 g ae/ha. An outline of the steps:
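Greenhouse-grown Palmer amaranth (25 to 28° C, 16 h light) sprayed postemergence at the 2 to 8 leaf stage with 140 or 280 g ae/ha in acetone/DMSO-based solution containing crop oil concentrate, 187 L/ha by track sprayer. Three to four replicates; plant size measured 21 days after treatment as percent reduction versus untreated control.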

Series [5] concerns Amaranthus rudis (AMATA). Described as above. Particulars: Amaranthus tuberculatus, post-emergence, 504 h, AMATA, postemergence, read-out: Control/Injury; for pest or weed control at 140 g/ha: rate 140 g ae/ha; for pest or weed control at 280 g/ha: rate 280 g ae/ha. It is filed as in vivo, Amaranthus rudis (tall water hemp). Put shortly:
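Greenhouse-grown tall waterhemp (25-28° C, 16 h light) at the 2-8 leaf stage, treated by track sprayer at 187 L/ha with compound at 140 or 280 g ae/ha in acetone/DMSO-based spray solution with crop oil and surfactant. 3-4 replicates per treatment, randomized complete block; plant size reduction versus untreated control measured 21 days after treatment.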

Series [6] relates to Glycine max. Description: whole plant or invertebrate. Conditions: for Control/Injury: in vivo. As to the method: Plants were grown in a soil media composed of 90% by volume Promix BX (Premier Tech Horticulture, Quakertown, PA) and 10% Profile Greens Grade (Profile Products LLC, Buffalo Grove, IL). Promix BX contains approximately 83% Sphagnum Peat Moss, 13% Perlite, 5% vermiculite, and proprietary amounts of limestone, starter fertilizer, and wetting agent. Profile Greens Grade is a sand-sized granule formed from calcining illite and montmorillonite clay. Several seeds of each species were planted in 10 cm square pots and top watered twice daily. Plant material was propagated in a warm greenhouse with temperature ranging from 25 to 28° C. and 50 to 60% relative humidity at the Corteva Global Headquarters (Indianapolis, Indiana, USA). Natural light was supplemented with 1000-watt metal halide overhead lamps with an average illumination of 500 μE m^−2 s^−1 photosynthetic active radiation for 16 consecutive hours each day. Plants were top-watered prior to herbicide application and sub-watered after herbicide application.
Appropriate amounts of test materials were weighed out into glass vials in their technical form to deliver either 140 or 280 g acid equivalent (ae)/ha. The samples were dissolved in 3 ml of Solvent 1. Solvent 1 is 97% acetone and 3% dimethyl sulfoxide and serves as a general-purpose solvent (GPS) for dissolving technical materials. […] The samples were then diluted to their final concentration using 17 ml of solvent 2 for a total of 20 ml of spray solution. Solvent 2 contains 41.58% GPS, 45.53% water, 11.88% isopropyl alcohol, 0.99% crop oil concentrate and 0.02% Trition X-155 surfactant. All percentages are listed on a volume basis. Dicamba diglycolamine was applied as a formulated herbicide, Clarity™ and diluted with solvent 2 to compare all materials in the same spray solution.
Herbicide applications were made to 3 to 4 replicates of each plant species at the 2 to 8 leaf stage, depending on the species. Treatments were applied with a research track-sprayer (Generation III Research Sprayer manufactured by DeVries Manufacturing in Hollandale, MN, USA) calibrated to deliver a spray volume of 187 L/ha. The track-sprayer was fitted with an 8003E nozzle from Spray Systems Company (North Avenue and Schmale Road, P.O. Box 7900, Wheaton, IL 60187), and used a spray pressure of 276 kPa pressure and a speed of 3.1 km/h. The nozzle height was 46 cm above the plant canopy. The experimental design used for the trials was a randomized complete block with 3 or 4 replications per treatment. After application, plants were placed on carts according to the randomization and returned to the greenhouse. Plants were sub-watered after treatment with Indianapolis city water or fertilized three times a week with a commercial fertilizer solution (Jack's Professional 15-5-15 4 Ca 2 Mg fertilizer (manufactured by JR PETERS INC., 6656 Grant Way, Allentown, PA 18106; www.jrpeters.com). Percent visual control assessments were made on a scale of 0 to 100% (where 0 was no control and 100 was complete plant death) at 7, 14, and 21 days after treatment.
In conformity with the methods outlined in Example 49, the effect of representative experimental compounds on the growth of Glycine max was determined at 2 different levels (respectively, 140 and 280 g acid equivalent (ae)/ha) of the experimental actives tested. Plants were treated with one of the compounds, a control plant was not treated. Twenty-one days after treatment, the plants were measured. The data is present as a percent reduction in plant size relative to the untreated control.

The mark [7] stands for this setting: percent reduction vs untreated control, 21 days after treatment.
The mark [8] stands for this setting: R-AMAPA, percent reduction vs untreated control, 21 days after treatment.
[9] abbreviates: percent reduction vs untreated, 21 days after treatment.
[10] abbreviates: Glycine max, post-emergence, 504 h, read-out: Control/Injury.

SMILES strings stand for the structures. Where two headings read alike, the source gives them in different places.

Take `COc1c(Cl)ccc(Cl)c1C(=O)Nc1ncccn1` [Compound A-62]: the pest or weed control at 140 g/ha in series [1] (setting [7]) amounted to 82%; in series [2], 77%; in series [3] it was 83%; in series [4] (setting [8]), 73%; in series [5] it was 65%. For the same compound, the pest or weed control at 280 g/ha in series [1] (setting [7]) is 93%; in series [2], 90%; in series [3], 87%; in series [4] (setting [8]), 92%; in series [5] it was 76%. The compound also gave a Control/Injury in series [6] of 3.

For the compound `COCCONC(=O)c1c(Cl)ccc(Cl)c1OC` [Compound A-95], the pest or weed control at 140 g/ha in series [1] was 3%; in series [1] (setting [7]), 8%; in series [2] (setting [7]) it was 57%; in series [2] (setting [9]) it was 3%; in series [4] (AMAPA), 5%; in series [4] (setting [8]), 42%. The pest or weed control at 280 g/ha was found to be 5% in series [1]; 17% in series [1] (setting [7]); 77% in series [2] (setting [7]); 3% in series [2] (setting [9]); 13% in series [4] (AMAPA); 55% in series [4] (setting [8]). The plant injury at 140 g/ha in series [6] (setting [10]) was determined as 4%. Moreover, in series [6] (setting [10]), the plant injury at 280 g/ha was determined as 6%. The Control/Injury in series [6] worked out at 15.

For `COC(=O)C(C(=O)OC)C(=O)c1c(Cl)ccc(Cl)c1OC` [Compound A-135], the pest or weed control at 140 g/ha in series [1] came to 10%; in series [2] (setting [9]) it was 3%; in series [3], 23%; in series [4] (AMAPA), 6%; in series [5] it was 0%. For the same compound, the pest or weed control at 280 g/ha in series [1] stood at 25%; in series [2] (setting [9]), 3%; in series [3] it was 35%; in series [4] (AMAPA), 10%; in series [5], 5%.

As to `COc1c(Cl)ccc(Cl)c1C(=O)O/N=C(\N)CC/C(N)=N/OC(=O)c1c(Cl)ccc(Cl)c1OC` [Compound A-140], the pest or weed control at 140 g/ha in series [1] (setting [9]) was found to be 83%; in series [2] (setting [9]), 95%; in series [3] it was 94%; in series [4] (setting [8]), 54%; in series [5], 70%. The pest or weed control at 280 g/ha in series [1] (setting [9]) turned out to be 83%; in series [2] (setting [9]) it was 98%; in series [3], 94%; in series [4] (setting [8]), 59%; in series [5], 68%.

For `COc1c(Cl)ccc(Cl)c1C(=O)O/N=C(\N)CCCC/C(N)=N/OC(=O)c1c(Cl)ccc(Cl)c1OC` [Compound A-145], the pest or weed control at 140 g/ha in series [1] (setting [9]) came out at 83%; in series [2] (setting [9]), 94%; in series [3], 88%; in series [4] (setting [8]) it was 55%; in series [5], 60%. Also, the pest or weed control at 280 g/ha was determined as 78% in series [1] (setting [9]); 91% in series [2] (setting [9]); 96% in series [3]; 65% in series [4] (setting [8]); 64% in series [5].

For the compound `COc1c(Cl)ccc(Cl)c1C(=O)O/N=C(\N)CCCCCC/C(N)=N/OC(=O)c1c(Cl)ccc(Cl)c1OC` [Compound A-147], the pest or weed control at 140 g/ha in series [1] (setting [9]) turned out to be 50%; in series [2] (setting [9]), 93%; in series [3], 80%; in series [4] (setting [8]) it was 43%; in series [5] it was 59%. The pest or weed control at 280 g/ha in series [1] (setting [9]) turned out to be 60%; in series [2] (setting [9]), 88%; in series [3], 81%; in series [4] (setting [8]), 38%; in series [5], 49%.

For the compound `COc1c(Cl)ccc(Cl)c1C(=O)O` [Dicamba, 3,6-dichloro-2-methoxybenzoic acid, reference compound], the pest or weed control at 140 g/ha in series [1] was found to be 94%; in series [2] (setting [9]) it was 94%; in series [3] it was 97%; in series [4] (AMAPA), 78%; in series [5], 99%. Besides, the pest or weed control at 280 g/ha turned out to be 100% in series [1]; 97% in series [2] (setting [9]); 100% in series [3]; 94% in series [4] (AMAPA); 90% in series [5].
